Measured values taken from patent US9834571B2, “Compounds for inhibiting cell proliferation in EGFR-driven cancers” (ARIAD Pharmaceuticals, Inc., priority 2012, dated 2017).
pIC50: −log10 of the molar value.

Tests used:
EGFR L858R/T790M = EGFR L858R/T790M (Homo sapiens, UniProt P00533, L858R/T790M); test: Kinase inhibitory activity against EGFR bearing the L858R/T790M double mutation; format: biochemical; conditions: EGFR L858R/T790M double mutation; 10 μM ATP; read-out: IC50 for kinase inhibition, EGFR L858R T790M
Protocol: (§1) Kinase inhibitory activity of the compounds was measured against human EGFR (native sequence) and against EGFR bearing the L858R mution and the L858R/T790M double mutation (EGFR, L858R, and L858R/T790M, respectively in Table 1). Additional assays can be conducted with EGFR deletion mutants such as delE746-A750 with or without the additional T790M mutation. Assay conditions included 10 pt curves with 3 μM top concentration (singlicates) and 10 μM ATP.

[1] = biological target: T1, BaF3 cells expressing the target EGFR mutations (Homo sapiens, UniProt P00533, T790M, cells depend on it, form not given); test: Antiproliferative activity (MTT) against BaF3 cells expressing the target EGFR mutations; format: cell-based; conditions: BAF3 EGFR DEL T790M PURO POOL cells, read-out: IC50, BAF3 EGFR DEL T790M PURO POOL
T1 construct: IC50, BAF3 EGFR DEL T790M PURO POOL; other: BAF3 EGFR DEL T790M PURO POOL cells, MTT; other: BAF3 EGFR DEL T790M PURO POOL cells; MTT
T1 sequence (P00533 with tags, fused parts or gaps DEL746-750/T790M, form open): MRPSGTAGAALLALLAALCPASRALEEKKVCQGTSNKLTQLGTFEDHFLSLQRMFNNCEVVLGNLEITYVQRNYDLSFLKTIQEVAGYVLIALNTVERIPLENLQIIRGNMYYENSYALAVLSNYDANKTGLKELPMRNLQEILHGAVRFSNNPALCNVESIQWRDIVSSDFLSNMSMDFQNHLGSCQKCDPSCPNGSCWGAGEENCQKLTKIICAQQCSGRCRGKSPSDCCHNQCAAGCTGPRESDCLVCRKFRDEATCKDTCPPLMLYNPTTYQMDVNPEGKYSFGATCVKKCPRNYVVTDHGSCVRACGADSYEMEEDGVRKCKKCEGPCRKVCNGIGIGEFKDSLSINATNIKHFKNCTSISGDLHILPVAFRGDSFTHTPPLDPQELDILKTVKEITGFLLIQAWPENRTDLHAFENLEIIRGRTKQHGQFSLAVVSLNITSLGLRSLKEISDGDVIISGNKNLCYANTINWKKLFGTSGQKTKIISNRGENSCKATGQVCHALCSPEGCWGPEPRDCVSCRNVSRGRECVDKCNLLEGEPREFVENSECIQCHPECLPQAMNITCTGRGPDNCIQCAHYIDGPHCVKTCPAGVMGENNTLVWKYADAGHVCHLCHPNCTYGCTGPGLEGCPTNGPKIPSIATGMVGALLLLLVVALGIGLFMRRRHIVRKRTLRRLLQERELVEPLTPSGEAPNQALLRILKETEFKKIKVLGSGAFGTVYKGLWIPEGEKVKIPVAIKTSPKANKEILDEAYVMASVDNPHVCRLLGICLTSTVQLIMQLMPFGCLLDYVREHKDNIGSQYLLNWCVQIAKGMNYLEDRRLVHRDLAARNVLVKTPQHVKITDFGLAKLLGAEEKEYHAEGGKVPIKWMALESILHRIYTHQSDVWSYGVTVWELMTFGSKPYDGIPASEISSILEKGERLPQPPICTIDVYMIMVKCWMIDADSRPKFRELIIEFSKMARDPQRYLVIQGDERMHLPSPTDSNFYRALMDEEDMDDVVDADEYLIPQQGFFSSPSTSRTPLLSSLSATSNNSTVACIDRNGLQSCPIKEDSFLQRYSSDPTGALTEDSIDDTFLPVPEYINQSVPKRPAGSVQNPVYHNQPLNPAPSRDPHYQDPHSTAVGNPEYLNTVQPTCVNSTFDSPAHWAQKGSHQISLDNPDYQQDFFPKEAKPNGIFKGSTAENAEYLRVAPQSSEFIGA
Protocol: (§2) We also assessed the antiproliferative activity of compounds of Formula (I) against BaF3 cells expressing the target EGFR mutations or control (i.e., cell lines expressing wildtype EGFR). Assays were conducted using MTT.

[2] = biological target: T2, BaF3 cells expressing the target EGFR mutations (Homo sapiens, UniProt P00533, T790M/L858R, cells depend on it); test: as above; format: cell-based; conditions: BAF3 EGFR L858R-T790M PURO POOL cells, read-out: IC50, BAF3 EGFR L858R-T790M PURO POOL
T2 construct: IC50, BAF3 EGFR L858R-T790M PURO POOL; other: BAF3 EGFR L858R-T790M PURO POOL cells, MTT; IC50, BAF3 EGFR L858R-T790M PURO POOL; other: BAF3 EGFR L858R-T790M PURO POOL cells; MTT
T2 sequence (P00533 whole entry T790M/L858R): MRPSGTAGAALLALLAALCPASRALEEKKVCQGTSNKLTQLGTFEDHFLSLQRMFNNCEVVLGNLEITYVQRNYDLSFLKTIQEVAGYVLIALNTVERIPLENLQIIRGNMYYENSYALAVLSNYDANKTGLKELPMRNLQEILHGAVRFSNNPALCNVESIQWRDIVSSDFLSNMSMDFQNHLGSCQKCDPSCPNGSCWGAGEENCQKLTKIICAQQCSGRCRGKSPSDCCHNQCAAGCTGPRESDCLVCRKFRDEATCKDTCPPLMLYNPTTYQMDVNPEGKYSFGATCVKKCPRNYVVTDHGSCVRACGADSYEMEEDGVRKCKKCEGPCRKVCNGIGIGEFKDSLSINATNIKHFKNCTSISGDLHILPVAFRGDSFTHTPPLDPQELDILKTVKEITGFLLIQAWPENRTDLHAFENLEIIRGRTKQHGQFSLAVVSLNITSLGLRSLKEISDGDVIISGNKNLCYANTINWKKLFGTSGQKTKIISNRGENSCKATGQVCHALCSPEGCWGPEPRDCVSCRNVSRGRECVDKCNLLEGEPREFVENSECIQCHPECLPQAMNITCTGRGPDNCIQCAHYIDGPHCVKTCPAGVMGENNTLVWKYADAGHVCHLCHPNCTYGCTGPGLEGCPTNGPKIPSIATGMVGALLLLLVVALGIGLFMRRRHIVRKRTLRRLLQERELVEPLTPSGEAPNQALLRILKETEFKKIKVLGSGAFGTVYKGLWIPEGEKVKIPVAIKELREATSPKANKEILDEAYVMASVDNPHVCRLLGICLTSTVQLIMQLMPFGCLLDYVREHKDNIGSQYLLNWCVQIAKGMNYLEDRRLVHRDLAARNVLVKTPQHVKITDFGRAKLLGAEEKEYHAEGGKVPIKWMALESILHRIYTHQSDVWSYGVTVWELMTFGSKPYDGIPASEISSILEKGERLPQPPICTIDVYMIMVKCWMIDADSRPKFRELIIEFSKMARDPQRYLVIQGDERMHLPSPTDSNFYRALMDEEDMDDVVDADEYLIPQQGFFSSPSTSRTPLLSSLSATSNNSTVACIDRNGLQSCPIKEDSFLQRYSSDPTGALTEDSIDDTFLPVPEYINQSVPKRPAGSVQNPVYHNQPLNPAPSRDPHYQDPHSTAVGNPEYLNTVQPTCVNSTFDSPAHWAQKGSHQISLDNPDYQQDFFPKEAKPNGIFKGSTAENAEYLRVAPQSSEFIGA
Protocol: as §2

[3] = system: BaF3 cells expressing wildtype EGFR; test: Antiproliferative activity (MTT) against control BaF3 cells expressing wildtype EGFR; format: cell-based; conditions: Mus musculus, BAF3 PARENTAL cells (control)
Protocol: as §2

[4] = biological target: human EGFR (native sequence) (Homo sapiens, UniProt P00533); test: Kinase inhibitory activity against human EGFR (native sequence); format: biochemical; conditions: human EGFR native sequence; 10 μM ATP; read-out: IC50 for kinase inhibition, EGFR
human EGFR (native sequence), sequence (P00533 25-1210): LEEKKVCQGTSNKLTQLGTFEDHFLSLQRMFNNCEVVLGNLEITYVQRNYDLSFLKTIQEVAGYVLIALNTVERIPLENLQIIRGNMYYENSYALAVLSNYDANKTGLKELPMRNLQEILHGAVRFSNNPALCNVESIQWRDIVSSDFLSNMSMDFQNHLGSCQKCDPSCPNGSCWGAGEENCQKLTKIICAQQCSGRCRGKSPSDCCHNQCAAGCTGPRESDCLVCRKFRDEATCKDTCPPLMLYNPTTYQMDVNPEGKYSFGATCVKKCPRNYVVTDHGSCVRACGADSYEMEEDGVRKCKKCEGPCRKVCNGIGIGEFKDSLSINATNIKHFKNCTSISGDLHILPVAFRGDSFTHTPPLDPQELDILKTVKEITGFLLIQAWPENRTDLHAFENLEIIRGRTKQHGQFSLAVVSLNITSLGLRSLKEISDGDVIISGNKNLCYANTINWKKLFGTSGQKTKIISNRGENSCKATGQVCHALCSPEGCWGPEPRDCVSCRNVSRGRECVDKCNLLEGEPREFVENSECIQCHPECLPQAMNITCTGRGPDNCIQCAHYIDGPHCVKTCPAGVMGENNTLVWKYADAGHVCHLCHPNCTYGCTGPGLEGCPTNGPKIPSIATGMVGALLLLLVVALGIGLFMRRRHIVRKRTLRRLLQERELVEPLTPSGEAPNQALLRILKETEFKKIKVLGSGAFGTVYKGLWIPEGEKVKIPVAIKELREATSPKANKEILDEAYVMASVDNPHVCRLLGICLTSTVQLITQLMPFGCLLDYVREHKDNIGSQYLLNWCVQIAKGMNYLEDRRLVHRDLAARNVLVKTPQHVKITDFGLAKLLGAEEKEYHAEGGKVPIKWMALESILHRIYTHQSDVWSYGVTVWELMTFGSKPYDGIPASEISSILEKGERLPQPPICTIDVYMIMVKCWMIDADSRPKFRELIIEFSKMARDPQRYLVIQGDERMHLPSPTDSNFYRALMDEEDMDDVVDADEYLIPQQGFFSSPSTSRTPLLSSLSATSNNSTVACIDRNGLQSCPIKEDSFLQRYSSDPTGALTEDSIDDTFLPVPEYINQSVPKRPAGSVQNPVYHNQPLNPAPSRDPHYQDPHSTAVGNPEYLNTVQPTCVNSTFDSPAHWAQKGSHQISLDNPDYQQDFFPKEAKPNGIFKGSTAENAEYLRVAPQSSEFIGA
Protocol: as §1

EGFR L858R = EGFR L858R (Homo sapiens, UniProt P00533, L858R); test: Kinase inhibitory activity against EGFR bearing the L858R mutation; format: biochemical; conditions: EGFR L858R; 10 μM ATP; read-out: IC50 for kinase inhibition, EGFR L858R
EGFR L858R, sequence (P00533 25-1210 L858R): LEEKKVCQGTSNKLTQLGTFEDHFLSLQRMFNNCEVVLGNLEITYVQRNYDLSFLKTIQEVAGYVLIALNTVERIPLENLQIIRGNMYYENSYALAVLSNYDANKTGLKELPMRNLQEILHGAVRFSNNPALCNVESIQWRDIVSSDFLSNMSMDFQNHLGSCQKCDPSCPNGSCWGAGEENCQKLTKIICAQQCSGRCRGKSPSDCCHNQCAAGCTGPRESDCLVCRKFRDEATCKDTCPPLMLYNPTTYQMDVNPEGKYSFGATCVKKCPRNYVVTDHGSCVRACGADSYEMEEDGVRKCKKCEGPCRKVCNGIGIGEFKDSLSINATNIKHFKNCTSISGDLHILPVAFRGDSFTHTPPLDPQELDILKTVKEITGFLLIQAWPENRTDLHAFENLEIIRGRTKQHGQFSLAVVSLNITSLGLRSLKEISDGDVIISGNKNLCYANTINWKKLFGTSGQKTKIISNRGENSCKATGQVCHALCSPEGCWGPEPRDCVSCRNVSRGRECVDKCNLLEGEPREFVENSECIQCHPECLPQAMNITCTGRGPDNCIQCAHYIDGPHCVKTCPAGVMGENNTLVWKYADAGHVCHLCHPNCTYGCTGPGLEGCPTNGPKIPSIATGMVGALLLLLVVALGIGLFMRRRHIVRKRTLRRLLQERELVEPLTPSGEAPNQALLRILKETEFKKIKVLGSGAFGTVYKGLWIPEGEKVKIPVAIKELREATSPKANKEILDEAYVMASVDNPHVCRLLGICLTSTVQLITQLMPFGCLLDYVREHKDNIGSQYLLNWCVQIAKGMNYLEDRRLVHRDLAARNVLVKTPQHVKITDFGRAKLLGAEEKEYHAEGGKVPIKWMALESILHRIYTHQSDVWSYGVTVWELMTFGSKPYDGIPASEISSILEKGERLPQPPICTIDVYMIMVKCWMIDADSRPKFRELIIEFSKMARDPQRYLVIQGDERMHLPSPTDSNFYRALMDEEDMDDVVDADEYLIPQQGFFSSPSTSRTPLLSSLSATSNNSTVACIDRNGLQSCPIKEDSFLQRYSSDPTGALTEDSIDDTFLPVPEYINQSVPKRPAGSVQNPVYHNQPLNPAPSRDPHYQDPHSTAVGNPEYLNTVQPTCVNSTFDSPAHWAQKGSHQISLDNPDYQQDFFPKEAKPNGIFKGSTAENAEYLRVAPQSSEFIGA
Protocol: as §1

Structure (SMILES): C=CC(=O)Nc1cc(Nc2ncc(Cl)c(Nc3ccccc3P(C)(C)=O)n2)c(OC)cc1OCCCN1CCOCC1 [Example 5, N-(5-((5-chloro-4-((2-(dimethylphosphoryl)phenyl)amino)pyrimidin-2-yl)amino)-4-methoxy-2-(3-morpholinopropoxy)phenyl)acrylamide]
- pIC50 (EGFR L858R/T790M): > 7.30
- GI50 [1]: 0.101 to 0.25 µM
- GI50 [2]: 0.101 to 0.25 µM
- pIC50 [3]: ≤ 6.60
- pIC50 [4]: 6.60 to 7.00
- pIC50 (EGFR L858R): > 7.30

Structure (SMILES): C=CC(=O)Nc1cc(Nc2ncc(Cl)c(Nc3ccccc3P(C)(C)=O)n2)c(OC)cc1OCC1CCOCC1 [Example 6, N-(5-((5-chloro-4-((2-(dimethylphosphoryl)phenyl)amino)pyrimidin-2-yl)amino)-4-methoxy-2-((tetrahydro-2H-pyran-4-yl)methoxy)phenyl)acrylamide]
- pIC50 (EGFR L858R/T790M): 7.00 to 7.30
- GI50 [1]: 0.05 to 0.1 µM
- GI50 [2]: 0.101 to 0.25 µM
- pIC50 [3]: ≤ 6.60
- pIC50 [4]: ≤ 6.60
- pIC50 (EGFR L858R): > 7.30

Structure (SMILES): C=CC(=O)Nc1cc(Nc2ncc(Cl)c(Nc3ccccc3P(C)(C)=O)n2)c(OC)cc1OCC1CCCCN1C (stereo not drawn) [Example 7, N-(5-((5-chloro-4-((2-(dimethylphosphoryl)phenyl)amino)pyrimidin-2-yl)amino)-4-methoxy-2-((1-methylpiperidin-2-yl)methoxy)phenyl)acrylamide]
- pIC50 (EGFR L858R/T790M): > 7.30
- GI50 [1]: < 0.05 µM
- GI50 [2]: < 0.05 µM
- pIC50 [3]: ≤ 6.60
- pIC50 [4]: > 7.30
- pIC50 (EGFR L858R): > 7.30

Structure (SMILES): C=CC(=O)Nc1cc(Nc2ncc(Cl)c(Nc3ccccc3P(C)(C)=O)n2)c(OC)cc1OCCN1CCCCC1 [Example 8, N-(5-((5-chloro-4-((2-(dimethylphosphoryl)phenyl)amino)pyrimidin-2-yl)amino)-4-methoxy-2-(2-(piperidin-1-yl)ethoxy)phenyl)acrylamide]
- pIC50 (EGFR L858R/T790M): > 7.30
- GI50 [1]: < 0.05 µM
- GI50 [2]: < 0.05 µM
- pIC50 [3]: ≤ 6.60
- pIC50 [4]: > 7.30
- pIC50 (EGFR L858R): > 7.30

Structure (SMILES): C=CC(=O)Nc1cc(Nc2ncc(Cl)c(Nc3ccccc3P(C)(C)=O)n2)c(OC)cc1OC1COC1 [Example 9, N-(5-((5-chloro-4-((2-(dimethylphosphoryl)phenyl)amino)pyrimidin-2-yl)amino)-4-methoxy-2-(oxetan-3-yloxy)phenyl)acrylamide]
- pIC50 (EGFR L858R/T790M): > 7.30
- GI50 [1]: < 0.05 µM
- GI50 [2]: 0.05 to 0.1 µM
- pIC50 [3]: ≤ 6.60
- pIC50 [4]: ≤ 6.60
- pIC50 (EGFR L858R): > 7.30

Structure (SMILES): C=CC(=O)Nc1cc(Nc2ncc(Cl)c(Nc3ccccc3P(C)(C)=O)n2)c(OC)cc1OCc1cccnc1 [Example 10, N-(5-((5-chloro-4-((2-(dimethylphosphoryl)phenyl)amino)pyrimidin-2-yl)amino)-4-methoxy-2-(pyridin-3-ylmethoxy)phenyl)acrylamide]
- pIC50 (EGFR L858R/T790M): > 7.30
- GI50 [1]: 0.05 to 0.1 µM
- GI50 [2]: 0.101 to 0.25 µM
- pIC50 [3]: ≤ 6.60
- pIC50 [4]: 7.00 to 7.30
- pIC50 (EGFR L858R): > 7.30

Structure (SMILES): C=CC(=O)Nc1cc(Nc2ncc(Cl)c(Nc3ccccc3P(C)(C)=O)n2)c(OC)cc1OCc1ccncc1 [Example 11, N-(5-((5-chloro-4-((2-(dimethylphosphoryl)phenyl)amino)pyrimidin-2-yl)amino)-4-methoxy-2-(pyridin-4-ylmethoxy)phenyl)acrylamide]
- pIC50 (EGFR L858R/T790M): > 7.30
- GI50 [1]: < 0.05 µM
- GI50 [2]: 0.101 to 0.25 µM
- pIC50 [3]: ≤ 6.60
- pIC50 [4]: > 7.30
- pIC50 (EGFR L858R): > 7.30

Structure (SMILES): C=CC(=O)Nc1cc(Nc2ncc(Cl)c(Nc3ccccc3P(C)(C)=O)n2)c(OC)cc1OC1CCCN(C)C1 (stereo not drawn) [Example 12, N-(5-((5-chloro-4-((2-(dimethylphosphoryl)phenyl)amino)pyrimidin-2-yl)amino)-4-methoxy-2-((1-methylpiperidin-3-yl)oxy)phenyl)acrylamide]
- pIC50 (EGFR L858R/T790M): > 7.30
- GI50 [1]: < 0.05 µM
- GI50 [2]: < 0.05 µM
- pIC50 [3]: ≤ 6.60
- pIC50 [4]: > 7.30
- pIC50 (EGFR L858R): > 7.30

Structure (SMILES): C=CC(=O)Nc1cc(Nc2ncc(Cl)c(Nc3ccccc3P(C)(C)=O)n2)c(OC)cc1OC1CCN(C)C1 (stereo not drawn) [Example 13, N-(5-((5-chloro-4-((2-(dimethylphosphoryl)phenyl)amino)pyrimidin-2-yl)amino)-4-methoxy-2-((1-methylpyrrolidin-3-yl)oxy)phenyl)acrylamide]
- pIC50 (EGFR L858R/T790M): > 7.30
- GI50 [1]: < 0.05 µM
- GI50 [2]: < 0.05 µM
- pIC50 [3]: ≤ 6.60
- pIC50 [4]: > 7.30
- pIC50 (EGFR L858R): > 7.30

Structure (SMILES): C=CC(=O)Nc1cc(Nc2ncc(Cl)c(Nc3ccccc3P(C)(C)=O)n2)c(OC)cc1OC(COC)CN1CCC1 (stereo not drawn) [Example 15, N-(2-((1-(azetidin-1-yl)-3-methoxypropan-2-yl)oxy)-5-((5-chloro-4-((2-(dimethylphosphoryl)phenyl)amino)pyrimidin-2-yl)amino)-4-methoxyphenyl)acrylamide]
- pIC50 (EGFR L858R/T790M): > 7.30
- GI50 [1]: < 0.05 µM
- GI50 [2]: < 0.05 µM
- pIC50 [3]: ≤ 6.60
- pIC50 [4]: > 7.30
- pIC50 (EGFR L858R): > 7.30

Structure (SMILES): C=CC(=O)Nc1cc(Nc2ncc(Cl)c(Nc3ccccc3P(C)(C)=O)n2)c(OC)cc1N1CCC(N2CCN(C)CC2)CC1 [Example 22, N-(5-((5-chloro-4-((2-(dimethylphosphoryl)phenyl)amino)pyrimidin-2-yl)amino)-4-methoxy-2-(4-(4-methylpiperazin-1-yl)piperidin-1-yl)phenyl)acrylamide]
- pIC50 (EGFR L858R/T790M): > 7.30
- GI50 [1]: 0.05 to 0.1 µM
- GI50 [2]: 0.05 to 0.1 µM
- pIC50 [3]: ≤ 6.60
- pIC50 [4]: > 7.30
- pIC50 (EGFR L858R): > 7.30

Structure (SMILES): C=CC(=O)Nc1cc(Nc2ncc(Cl)c(Nc3ccccc3P(C)(C)=O)n2)c(OC)cc1N1CCC(N(C)C)CC1 [Example 23, N-(5-((5-chloro-4-((2-(dimethylphosphoryl)phenyl)amino)pyrimidin-2-yl)amino)-2-(4-(dimethylamino)piperidin-1-yl)-4-methoxyphenyl)acrylamide]
- pIC50 (EGFR L858R/T790M): > 7.30
- GI50 [1]: < 0.05 µM
- GI50 [2]: 0.101 to 0.25 µM
- pIC50 [3]: ≤ 6.60
- pIC50 [4]: > 7.30
- pIC50 (EGFR L858R): > 7.30

Structure (SMILES): C=CC(=O)Nc1cc(Nc2ncc(Cl)c(Nc3ccccc3P(C)(C)=O)n2)c(OC)cc1N1CCC(N(C)C)C1 (stereo not drawn) [Example 24, N-(5-((5-chloro-4-((2-(dimethylphosphoryl)phenyl)amino)pyrimidin-2-yl)amino)-2-(3-(dimethylamino)pyrrolidin-1-yl)-4-methoxyphenyl)acrylamide]
- pIC50 (EGFR L858R/T790M): > 7.30
- GI50 [1]: < 0.05 µM
- GI50 [2]: < 0.05 µM
- pIC50 [3]: ≤ 6.60
- pIC50 [4]: > 7.30
- pIC50 (EGFR L858R): > 7.30

Structure (SMILES): C=CC(=O)Nc1cc(Nc2ncc(Cl)c(Nc3ccccc3P(C)(C)=O)n2)c(OC)cc1N1CCCN(C)CC1 [Example 25, N-(5-((5-chloro-4-((2-(dimethylphosphoryl)phenyl)amino)pyrimidin-2-yl)amino)-4-methoxy-2-(4-methyl-1,4-diazepan-1-yl)phenyl)acrylamide]
- pIC50 (EGFR L858R/T790M): > 7.30
- GI50 [1]: < 0.05 µM
- GI50 [2]: < 0.05 µM
- pIC50 [3]: ≤ 6.60
- pIC50 [4]: > 7.30
- pIC50 (EGFR L858R): > 7.30

Structure (SMILES): C=CC(=O)Nc1cc(Nc2ncc(Cl)c(Nc3ccccc3P(C)(C)=O)n2)c(OC)cc1N1CCN(C2CCN(C)CC2)CC1 [Example 27, N-(5-((5-chloro-4-((2-(dimethylphosphoryl)phenyl)amino)pyrimidin-2-yl)amino)-4-methoxy-2-(4-(1-methylpiperidin-4-yl)piperazin-1-yl)phenyl)acrylamide]
- pIC50 (EGFR L858R/T790M): > 7.30
- GI50 [1]: 0.05 to 0.1 µM
- GI50 [2]: 0.101 to 0.25 µM
- pIC50 [3]: ≤ 6.60
- pIC50 [4]: > 7.30
- pIC50 (EGFR L858R): > 7.30

Structure (SMILES): C=CC(=O)Nc1cc(Nc2ncc(Cl)c(Nc3ccccc3P(C)(C)=O)n2)c(OC)cc1N1CCC(N2CCOCC2)C1 (stereo not drawn) [Example 28, N-(5-((5-chloro-4-((2-(dimethylphosphoryl)phenyl)amino)pyrimidin-2-yl)amino)-4-methoxy-2-(3-morpholinopyrrolidin-1-yl)phenyl)acrylamide]
- pIC50 (EGFR L858R/T790M): > 7.30
- GI50 [1]: < 0.05 µM
- GI50 [2]: < 0.05 µM
- pIC50 [3]: ≤ 6.60
- pIC50 [4]: > 7.30
- pIC50 (EGFR L858R): > 7.30

Structure (SMILES): C=CC(=O)Nc1cc(Nc2ncc(Cl)c(Nc3ccccc3P(C)(C)=O)n2)c(OC)cc1N1CCCC(N(C)C)C1 (stereo not drawn) [Example 30, N-(5-((5-chloro-4-((2-(dimethylphosphoryl)phenyl)amino)pyrimidin-2-yl)amino)-2-(3-(dimethylamino)piperidin-1-yl)-4-methoxyphenyl)acrylamide]
- pIC50 (EGFR L858R/T790M): > 7.30
- GI50 [1]: < 0.05 µM
- GI50 [2]: < 0.05 µM
- pIC50 [3]: ≤ 6.60
- pIC50 [4]: > 7.30
- pIC50 (EGFR L858R): > 7.30
